According to patent US20250325505A1, “COMPOSITION COMPRISING CREATINE FOR USE IN THE TREATMENT OF BREATHING DIFFICULTIES” (Alzchem Trostberg GmbH, priority 2022, published 2025):
Like-named read-outs stand apart in the source and are kept apart here.

Assays:
Post-COVID patients [1] = test: Time to exhaustion, incremental treadmill test, creatine plus breathing exercise; format: in vivo, human; conditions: for Time to exhaustion: treadmill
Description: (§1) The time to exhaustion of the patients was evaluated by an incremental test until exhaustion on a motorized treadmill. Speed and gradient of the treadmill are increased every third minute, starting at 2.7 km/h (1.7 miles per hour) at a 10% gradient and rising at stage 7 to 9.7 km/h (6 miles per hour) at 22% gradient (Will P. M. and Walter J. D., Am Heart. J., 1999 December, 138, 1033).

Post-COVID patients [2] = test: Side effects, Example 2; format: in vivo, human; conditions: 4 g creatine monohydrate per day plus breathing exercise, 3-month
Source text: The changes in study outcomes during the trial are depicted in Table 5 and 6.

Post-COVID patients [3] = test: Patient-reported symptoms, VAS scale, Example 2; format: in vivo, human; conditions: for Breathing difficulties (VAS scale) / Lung malaise (VAS scale) / Lung pain (VAS scale): 4 g creatine monohydrate per day plus breathing exercise
Description: (§2) The patient-reported outcomes for COVID-19-related signs and symptoms (e.g., breathing difficulties, lung pain, body aches,) were evaluated with VAS scale Table 3). Fatigue, comprising the conditions of the group general fatigue, physical fatigue, metal fatigue, reduced activity, and reduced motivation, was evaluated with a multidimensional fatigue inventory test (MFI-20 test, Smets E. M. et al., J. Psychosom. Res. 1995, 39(3), 315).

[4] = normal healthy population after creatine supplementation; cited from earlier work
Post-COVID patients [5] = test: Side effects, Example 1; format: in vivo, human; conditions: 4 g creatine monohydrate per day
Description: The number of participants who were randomly assigned, received intended treatment, and were analyzed for the primary outcome at this time was twelve in total, six in experimental group and six in control group.

Post-COVID patients [6] = test: Multidimensional fatigue inventory test (MFI-20), Example 2; format: in vivo, human; conditions: 4 g creatine monohydrate per day plus breathing exercise
Description: as §2

Post-COVID patients [7] = test: Multidimensional fatigue inventory test (MFI-20), Example 1; format: in vivo, human; conditions: 4 g creatine monohydrate per day
Description: as §2
Thus, the higher the score, the higher the respective symptom is experienced by the interviewed patient. As a consequence, the lower the value given, the better is the effect in mitigation of the respective symptom.

[8] = human, in vivo
Post-COVID patients [9] = test: Time to exhaustion, incremental treadmill test, creatine vs placebo; format: in vivo, human; conditions: creatine vs placebo study; for Time to exhaustion: treadmill
Description: as §1

PCFS patients [10] = test: Fatigue scores, Example 4; format: in vivo, human; parameters: key to General fatigue score / Physical fatigue score / Mental fatigue score / Reduced activity score / Reduced motivation score: MFI-20 multidimensional fatigue inventory subscale scores; conditions: for General fatigue score / Mental fatigue score / Physical fatigue score / Reduced activity score / Reduced motivation score: creatine 8 g per day or glucose 3 g per day
Description: as §2, with “315). […]” for “315).”

PCFS patients [11] = test: Patient-reported symptoms, VAS scale, Example 4; format: in vivo, human; conditions: for Body Aches (VAS scale) / Breathing difficulties (VAS scale) / Lung pain (VAS scale): creatine 8 g per day or glucose 3 g per day
Description: The patient-reported outcomes for COVID-19-related signs and symptoms (e.g., breathing difficulties, lung pain, body aches and post viral fatigue) were evaluated with VAS scale (Tables 10 and 11).
The Cohen's effect sizes (d) in the creatine group for all outcomes evaluated and reproduced in Table 12 and FIG. 2. The effects are classified as small (d=0.2), medium (d=0.5, dashed line), and large (d≥0.8). Missing values are due to a statistical limitation in calculating effect sizes when pre and/or post values equal zero. Abbreviations: GF, general fatigue; PF, physical fatigue; RM, reduced motivation; RA, reduced activity; MF, mental fatigue; BOA, body aches; BRD, breathing difficulties; LUP, lung pain; and MAL, malaise.

[12] = both, human, in vivo, 3 months
Post-COVID patients [13] = test: Patient-reported COVID-19-related symptoms, VAS scale, Example 1; format: in vivo, human; conditions: for Body Aches (VAS scale) / Breathing difficulties (VAS scale) / Lung pain (VAS scale): 4 g creatine monohydrate per day
Description: as §2

[14] = creatine group, 8 g per day, 8 weeks

CN(CC(=O)O)C(=N)N.O [Creatine, creatine monohydrate]
Cohen's effect size for time to exhaustion (Post-COVID patients [1]; creatine monohydrate plus breathing exercise): 0.36 | stage reached in the treadmill test (Post-COVID patients [1]; creatine plus breathing exercise study): 6 | Time to exhaustion (Post-COVID patients [1]; creatine plus breathing exercise study, 3-months): 921 s | Time to exhaustion (Post-COVID patients [1]; creatine plus breathing exercise study, Baseline): 867 s | mean time to exhaustion improved (Post-COVID patients [1]; experimental group, post-administration (3 months)): 54 s | side effects / tolerability (Post-COVID patients [2]): well-tolerated | Cohen's effect size for lung malaise (Post-COVID patients [3]; 3-month follow up): 2.97 | Breathing difficulties (VAS scale) (Post-COVID patients [3]; 3 months): 0.0 | Lung malaise (VAS scale) (Post-COVID patients [3]; 3 months): 1.0 | Lung pain (VAS scale) (Post-COVID patients [3]; 3 months): 0.0 | Breathing difficulties (VAS scale) (Post-COVID patients [3]; Baseline): 1.5 | Lung malaise (VAS scale) (Post-COVID patients [3]; Baseline): 6.3 | Lung pain (VAS scale) (Post-COVID patients [3]; Baseline): 0.5 | lung malaise reduced (Post-COVID patients [3]; creatine plus breathing exercise, 3-month follow up): 84% | increase of creatine in the brain [4]: ≤ 5% | side effects (Post-COVID patients [5]): no major side effects | General fatigue score (Post-COVID patients [6]; 3 months): 12.3 | Mental fatigue score (Post-COVID patients [6]; 3 months): 11.5 | Physical fatigue score (Post-COVID patients [6]; 3 months): 12.2 | Reduced activity score (Post-COVID patients [6]; 3 months): 12.8 | Reduced motivation score (Post-COVID patients [6]; 3 months): 12.8 | General fatigue score (Post-COVID patients [6]; Baseline): 11.5 | Mental fatigue score (Post-COVID patients [6]; Baseline): 11.8 | Physical fatigue score (Post-COVID patients [6]; Baseline): 12.3 | Reduced activity score (Post-COVID patients [6]; Baseline): 12.5 | Reduced motivation score (Post-COVID patients [6]; Baseline): 13.5 | General fatigue score (Post-COVID patients [7]; 3 months): 11.3 | Mental fatigue score (Post-COVID patients [7]; 3 months): 11.2 | Physical fatigue score (Post-COVID patients [7]; 3 months): 12.7 | Reduced activity score (Post-COVID patients [7]; 3 months): 12.0 | Reduced motivation score (Post-COVID patients [7]; 3 months): 13.0 | General fatigue score (Post-COVID patients [7]; 6 months): 12.7 | Mental fatigue score (Post-COVID patients [7]; 6 months): 10.5 | Physical fatigue score (Post-COVID patients [7]; 6 months): 13.2 | Reduced activity score (Post-COVID patients [7]; 6 months): 12.5 | Reduced motivation score (Post-COVID patients [7]; 6 months): 12.5 | General fatigue score (Post-COVID patients [7]; Baseline): 12.0 | Mental fatigue score (Post-COVID patients [7]; Baseline): 12.3 | Physical fatigue score (Post-COVID patients [7]; Baseline): 13.5 | Reduced activity score (Post-COVID patients [7]; Baseline): 11.5 | Reduced motivation score (Post-COVID patients [7]; Baseline): 13.0 | Total creatine, Left paracentral grey matter [8]: 6.7 ± 0.6 mM | Total creatine, Right paracentral grey matter [8]: 6.8 ± 0.4 mM | Cohen's effect size (d), increased brain creatine level in left parietal white matter ([8]; 3 months): 0.92 | Cohen's effect size (d), increased brain creatine level in parietal white matter ([8]; 3 months): 1.99 | Cohen's effect size (d), increased brain creatine level in right frontal white matter ([8]; 3 months): 1.25 | Cohen's effect size (d), increased brain creatine level in right paracentral grey matter ([8]; 3 months): 0.88 | Cohen's effect size (d), increased brain creatine level in right parietal messial grey matter ([8]; 3 months): 1.17 | Cohen's effect size (d), increased brain creatine level in thalamus ([8]; 3 months): 0.82 | Total creatine, Left paracentral grey matter ([8]; 3 months): 7.3 ± 0.9 mM | Total creatine, Right paracentral grey matter ([8]; 3 months): 7.2 ± 0.5 mM | Cohen's effect size (d), increased brain creatine level in left parietal messial grey matter ([8]; 6 months): 0.84 | Cohen's effect size (d), increased brain creatine level in left parietal white matter ([8]; 6 months): 1.17 | Cohen's effect size (d), increased brain creatine level in parietal white matter ([8]; 6 months): 1.74 | Cohen's effect size (d), increased brain creatine level in right frontal white matter ([8]; 6 months): 1.32 | Cohen's effect size (d), increased brain creatine level in right parietal messial grey matter ([8]; 6 months): 1.06 | Total creatine, Left paracentral grey matter ([8]; 6 months): 7.1 ± 0.7 mM | Total creatine, Right paracentral grey matter ([8]; 6 months): 7.0 ± 0.7 mM | stage achieved in the treadmill test (Post-COVID patients [9]): 6 | time to exhaustion increased (Post-COVID patients [9]; matches 6-months vs baseline of Table 7): 7.3% | Time to exhaustion (Post-COVID patients [9]; 3-months): 922 s | Time to exhaustion (Post-COVID patients [9]; 6-months): 959 s | Time to exhaustion (Post-COVID patients [9]; Baseline): 894 s | General fatigue score (PCFS patients [10]; 8 weeks): 12.0 | Mental fatigue score (PCFS patients [10]; 8 weeks): 12.2 | Physical fatigue score (PCFS patients [10]; 8 weeks): 11.4 | Reduced activity score (PCFS patients [10]; 8 weeks): 12.0 | Reduced motivation score (PCFS patients [10]; 8 weeks): 10.3 | General fatigue score (PCFS patients [10]; Baseline): 12.6 | Mental fatigue score (PCFS patients [10]; Baseline): 13.4 | Physical fatigue score (PCFS patients [10]; Baseline): 12.2 | Reduced activity score (PCFS patients [10]; Baseline): 13.6 | Reduced motivation score (PCFS patients [10]; Baseline): 11.6 | Cohen's effect (d), General Fatigue (PCFS patients [10]; [14]): 0.44 | Cohen's effect (d), Physical Fatigue (PF) (PCFS patients [10]; [14]): 0.83 | Cohen's effect size (d) for reducing body aches (PCFS patients [11]; 8-week follow-up): > 0.80 | Cohen's effect size (d) for reducing breathing difficulties (PCFS patients [11]; 8-week follow-up): > 0.80 | Cohen's effect size (d) for reducing lung malaise (PCFS patients [11]; 8-week follow-up): > 0.80 | Body aches reduced (PCFS patients [11]; after 8 weeks): 71% | Lung pain reduced (PCFS patients [11]; after 8 weeks): 67% | breathing difficulties (dyspnea) reduced (PCFS patients [11]; after 8 weeks): 85% | Body Aches (VAS scale) (PCFS patients [11]; 8 weeks): 0.8 | Breathing difficulties (VAS scale) (PCFS patients [11]; 8 weeks): 0.4 | Lung pain (VAS scale) (PCFS patients [11]; 8 weeks): 0.6 | Body Aches (VAS scale) (PCFS patients [11]; Baseline): 2.8 | Breathing difficulties (VAS scale) (PCFS patients [11]; Baseline): 2.6 | Lung pain (VAS scale) (PCFS patients [11]; Baseline): 1.8 | Cohen's effect (d), Body aches (BOA) (PCFS patients [11]; [14]): 1.11 | Cohen's effect (d), Lung pain (LUP) (PCFS patients [11]; [14]): 0.64 | Cohen's effect size (d) for creatine increment, vastus medialis muscle [12]: 0.77 | Body Aches (VAS scale) (Post-COVID patients [13]; 3 months): 1.2 | Breathing difficulties (VAS scale) (Post-COVID patients [13]; 3 months): 0.5 | Lung pain (VAS scale) (Post-COVID patients [13]; 3 months): 0.5 | Body Aches (VAS scale) (Post-COVID patients [13]; 6-months): 0.0 | Breathing difficulties (VAS scale) (Post-COVID patients [13]; 6-months): 0.0 | Lung pain (VAS scale) (Post-COVID patients [13]; 6-months): 0.0 | Body Aches (VAS scale) (Post-COVID patients [13]; Baseline): 4.5 | Breathing difficulties (VAS scale) (Post-COVID patients [13]; Baseline): 2.3 | Lung pain (VAS scale) (Post-COVID patients [13]; Baseline): 2.3 | Body aches reduced (Post-COVID patients [13]; after 3 months): 73.3% | Lung pain (Post-COVID patients [13]; after 3 months): reduced significantly | breathing difficulties (dyspnea) reduced (Post-COVID patients [13]; after 3 months): 78% | Cohen's effect size (d), body aches (Post-COVID patients [13]; at 3-month): 1.77 | Cohen's effect size (d), breathing difficulties (Post-COVID patients [13]; at 3-month): 0.89 | Cohen's effect size (d), body aches (Post-COVID patients [13]; at 6-month): 3.03 | Cohen's effect size (d), breathing difficulties (Post-COVID patients [13]; at 6-month): 1.25 | Cohen's effect size (d), lung pain (Post-COVID patients [13]; at 6-month): 0.99
